Entries after “also recorded” stand apart in the source; their conditions may differ.
How the values were obtained:
[1] = tested on: mechanical allodynia in rat chronic constriction injury (CCI) model; assay: von Frey test of mechanical allodynia in rat chronic constriction injury (CCI) model of neuropathic pain; assay type: in vivo
[2] = tested on: mechanical allodynia in rat model of taxol-induced neuropathic pain; assay: von Frey test of mechanical allodynia in rat model of taxol-induced neuropathic pain; assay type: in vivo
Procedure: Test Agents: Ibudilast was formulated as described above. Ibudilast was administered at 7.5 mg/kg (2.7 ml/kg of 2.8 mg/ml in 35% PEG/saline i.p. each morning (typically 8 am) and pm (typically 3 pm). Animals: Pathogen-free adult male Sprague-Dawley rats (280-350 g; Harlan Labs) were used in all experiments. Rats were housed in temperature (23+/−3° C.) and light (12:12 light: dark; lights on at 0700 hr) controlled rooms with standard rodent chow and water available ad libitum. Behavioral testing was performed during the light cycle. Taxol Model: Neuropathic pain was induced by administration of 4 i.p. injections on alternate days (Day 0, 2, 4, and 6) of 1 mg/kg taxol (Paclitaxel®, cumulative dose 4 mg/kg). Neuropathic pain onset was maximal around day 19 post taxol administration (Day 0). Ibudilast or vehicle control treatment initiated at either day 19 (treatment paradigm) or day 12 (prevention paradigm). Allodynia results were determined prior to the morning administration of vehicle or ibudilast. Behavioral Measures von Frey Test: The von Frey test was performed within the sciatic or saphenous innervation area of the hindpaws as previously described above for the CCI model. All testing was conducted in the am prior to the morning dose of ibudilast for that day. Multi-day Study for Neuropathic Pain Efficacy: 7.5 mg/kg Ibudilast was administered twice daily for 7 days starting day 20 after the first taxol dose (Day 0). Mechanical allodynia was assessed prior to the first dose of ibudilast each day. Prevention of Taxol-Induced Neuropathy: A second study was performed identical in nature to the multi-day study described above except that ibudilast or vehicle control administrations were initiated on day 12 just as allodynia was becoming clearly evident.

[3] = tested on: astrocyte activation (Glial Fibrillary Acidic Protein staining); assay: GFAP immunohistochemistry of lumbar spinal cord from CCI rats (astrocyte activation); assay type: in vivo, rat; settings: 7.5 mg/kg ip BID for 5 days
Text: Study of Attenuation of Glial Cell Activation in Ibudilast-Treated CCI Rats: At the end of the 5-day study, animals (4/group) from the CCI vehicle control or CCI ibudilast group were euthanized and lumbar spinal cord tissue was isolated and stained for astrocyte activation with an antibody reactive against Glial Fibrillary Acidic Protein (GFAP) as described in […] and J A DeLeo, Brain Research (2002) 956:294-301. FIG. 6 depicts a typical staining profile from CCI vehicle-treated animals. Enlarged (activated) astrocytes, typically observed in subjects with neuropathic pain (CCI rats in this case), are visible in the CCI group.

[4] = in vivo; settings: rat
Procedure: Pharmacokinetics. Plasma Ibudilast Concentrations Correlating with Efficacy: Dedicated pharmacokinetic studies in normal rats were performed with ibudilast dosing i.p. or p.o. in order to correlate drug plasma levels with changes in mechanical allodynia (i.e. neuropathic pain efficacy). Following dosing (time t=0), serial bleeding from n=3 rats/time point and 6 time points interspersed between 5 min and 6 hr was obtained, plasma was isolated, and ibudilast concentrations were determined by a HPLC and two-dimensional mass spectrometry (LC/MS/MS) method (described in Example 4) sensitive to ≦1 ng/ml. […] Moreover, pharmacokinetic-pharmacodynamic analyses involving PK parameters including Cmax, area under the curve (AUC), and elimination half-life (t1/2) indicated Cmax is an important parameter in establishing efficacy.
(§1) Tissue Concentration Analysis: A solution of ibudilast (Haorui) at 0.5 mg/ml in DMSO was used as the working stock. A solution of ibudilast at 0.5 mg/ml in DMSO was prepared using the powdered ibudilast provided with the study samples and used as the working stock. Calibration standards in plasma were prepared by diluting each 0.5 mg/ml stock 1 in 100 into rat plasma to 5000 ng/ml (5 μl+495 μl), then diluting further, to 2.29 ng/ml, by 3-fold serial dilution with plasma. Standards 3, 5 and 7 were used as low, mid and high QC samples, respectively.
(§2) Calibration standards, QC and plasma study samples were prepared for HPLC injection by precipitating 25 μl of plasma with 3× volumes (75 μl) of ice cold acetonitrile containing 50 ng/ml diphenhydramine and 100 ng/ml dextromethorphan as the internal standards. Tissue study samples were prepared for HPLC injection by adding 1 μl of water per mg of tissue plus 3× volumes (relative to water) of ice cold acetonitrile containing 50 ng/ml diphenhydramine and 100 ng/ml dextromethorphan as the internal standards, then homogenized with an electric homogenizer. Following centrifugation at 6100 g for 30 minutes, 40 μl of each supernatant was diluted with 200 μl of 0.2% formic acid in water and analyzed by the following LC/MS/MS conditions: • HPLC: Shimadzu VP System • Mobile Phase: 0.2% formic acid in water (A) and in methanol (B) • Column: 2×10 mm Peeke Scientific DuraGel G C18 guard cartridge • Injection Volume: 100 μl • Gradient: 5-95% B in 2 minutes after a 0.75 minute wash • Flow Rate: 400 μl/min • Mass Spectrometer: Applied Biosystems/MDS SCIEX API 3000 • Interface: TurboIonSpray (ESI) at 400° C. • Ionization Mode: Positive Ion • Q1/Q3 Ions: 231.2/161.2 for ibudilast Studies and Results

[5] = tested on: mechanical allodynia in rat Chung model; assay: von Frey test of mechanical allodynia in rat Chung model of neuropathic pain; assay type: in vivo
Procedure: Test Agents: Haorui and Sigma ibudilast was formulated as described above. Ibudilast was administered at 10 mg/kg twice daily, (3.7 ml/kg of 2.7 mg/ml in 35% PEG/saline) i.p. each morning (typically 8 am) and pm (typically 3 pm). Animals: Pathogen-free adult male Wistar rats (150-200 g; Elevage Janvier) were used in all experiments. Rats were housed in temperature (23+/−3° C.) and light (12:12 light: dark; lights on at 0700 hr) controlled rooms with standard rodent chow and water available ad libitum. Behavioral testing was performed during the light cycle. Chung model: Rats were anesthetized under isoflurane (4-5% induction and 2-3% maintenance in 100% oxygen) and an incision at the L4-S2 levels was performed to expose the left L5 and L6 spinal nerves. A ligature was tied tightly around each nerve. The wound was then sutured. The rats received an injection of clamoxil and were allowed to recover. Sham controls were subjected to the same surgical procedure except that the nerves were not ligated. […] Multi-day Study for Neuropathic Pain Efficacy: A 3-day efficacy study was undertaken wherein the animals (n=3-4/group for shams and 5/group for Chung animals) were administered 10 mg/kg ibudilast or 35% PEG/saline vehicle twice daily and mechanical allodynia was monitored at various time intervals post-dosing. […] A pre-dose reading was acquired each day in order to assess durability of efficacy.

[6] = tested on: activated microglia; settings: dose-dependent; Mizuno et al. 2004; cited from earlier work
[7] = Dose selection study: rat tolerability to intraperitoneal ibudilast; assay type: in vivo
Text: Dose Selection Study: Preliminary studies were designed to assess rat tolerability to single and multiple intraperitoneal administrations of ibudilast. […] These included extended head, increased respiratory rate, occasional circling behavior and vocalization, and lethargy.

[8] = Rat ibudilast plasma PK and tissue distribution (plasma, muscle, brain, spinal cord); assay type: in vivo
Procedure: Test Agents: Ibudilast was prepared in 15% ethanol/saline. Drug stability and concentration were validated by HPLC/MS/MS.
Animals: Pathogen-free adult male Sprague-Dawley rats (280-350 g; Harlan Labs) were used in all experiments. Rats were housed in temperature (23+/−3° C.) and light (12:12 light: dark; lights on at 0700 hr) controlled rooms with standard rodent chow and water available ad libitum. Behavioral testing was performed during the light cycle.
PK Analysis: Rats (n=3/group) were administered 5 mg/kg ibudilast, i.p. and plasma, muscle, brain, and spinal cord were harvested at 5, 15, 60, 180, and 420 min post administration.
as §1
as §2, with “Tissue study samples were prepared for HPLC injection by adding 1 μl of water per mg of tissue plus 3× volumes (relative to water) of ice cold acetonitrile containing 50 ng/ml diphenhydramine and 100 ng/ml dextromethorphan as the internal standards, then homogenized with an electric homogenizer.” left out

[9] = humans, cited from earlier work
[10] = administered systemically; Sugiyama et al. 1993; cited from earlier work

CN1CC[C@]23c4c5ccc(O)c4O[C@H]2[C@@H](O)C=C[C@H]3[C@H]1C5 [morphine]
reversal of allodynia in comparison to vehicle control, combination study ([1]; 7.5 mg/kg ibudilast ip bid alone or with 1 mg/kg morphine s.c., several days): greater than that by ibudilast

CC(C)C(=O)c1c(C(C)C)nn2ccccc12 [Ibudilast, 3-isobutyryl-2-isopropylpyrazolo[1,5-a]pyridine]
days of treatment after which attenuation became durable (pm dosing to next day's pre-am test) ([1]; 21 mg/kg p.o. twice daily): 2 days | earliest time of attenuation of allodynia after the first dose ([1]; 21 mg/kg p.o. twice daily): 4 h | attenuation of allodynia, oral twice daily ([1]; 21 mg/kg p.o. twice daily 2 days then 25.5 mg/kg 3 days, 35% PEG/saline): Attenuation of allodynia was observed | days of dosing to durable efficacy lasting overnight ([1]; 50 mg/kg oral gavage once daily): ≤ 7 days | magnitude of allodynia, oral once daily ([1]; 50 mg/kg oral gavage once daily, 10% HCO-60, 10% PEG400 in saline, following 2 days of dosing, shortly after morning dose): significantly attenuated the magnitude of allodynia | magnitude of allodynia (50% withdrawal threshold), multi-day study ([1]; 2.5, 7.5 or 10 mg/kg i.p. twice daily, 1 week, significant at +2 hr post-administration): attenuated the magnitude of allodynia | time after treatment at which reversal of neuropathic pain was still evident ([1]; doses >2.5 mg/kg i.p. bid, within two days of regimen): 16 h | paw withdrawal thresholds in ibudilast sham animals ([1]; sham-operated rats, single i.p. 10-15 mg/kg): no changes in paw withdrawal thresholds | time at which reduction in allodynia was apparent ([1]; single i.p. 10-15 mg/kg): 1 h | time of maximum reduction in allodynia ([1]; single i.p. 10-15 mg/kg): 2 h | time of return to baseline ([1]; single i.p. 10-15 mg/kg): 16 h | acute reduction in allodynia relative to CCI vehicle animals ([1]; single i.p. administration of 10-15 mg/kg, measured 1, 2, 4, 16 hr post-administration): showed a reduction in allodynia | prevention of taxol-induced neuropathy development ([2]; 7.5 mg/kg i.p. BID initiated on day 12): prevented the further neuropathy development | time to return to allodynic state after discontinuation ([2]; 7.5 mg/kg i.p. twice daily): ≤ 1 days | magnitude of allodynia, treatment of established taxol neuropathy ([2]; 7.5 mg/kg i.p. twice daily for 7 days, measured prior to morning dose): attenuated the magnitude of allodynia; also recorded: statistically significantly different from vehicle control | glial cell activation as measured by GFAP staining [3]: Reduced glial cell activation | Cmax [4]: ≥ 125 ng/mL | Cmax ([4]; ip, 2.5 mg/kg): 125 ng/mL | Cmax ([4]; ip, 7.5 mg/kg): 1710 ng/mL | Cmax ([4]; po, 21 mg/kg): 325 ng/mL | Cmax ([4]; po, 50 mg/kg): 387 ng/mL | time after treatment at which reversal of neuropathic pain was still evident (pre-dose reading) ([5]; 10 mg/kg i.p. b.i.d., within two days of regimen): 16 h | magnitude of allodynia (50% withdrawal threshold) ([5]; 10 mg/kg i.p. twice daily, 3 days): attenuated the magnitude of allodynia | production of IL-10, NGF, GDNF and NT-4 [6]: enhance | production of nitric oxide (NO), reactive oxygen species, IL-1β, IL-6 and TNF [6]: suppress | duration of adverse behavioral effects ([7]; i.p. doses >20 mg/kg in 35% PEG/saline): up to 1 hr | adverse behavioral effects ([7]; i.p. doses >20 mg/kg in 35% PEG/saline, volume </=5 ml/kg): produced adverse behavioral effects | tolerability ([7]; rat, in vivo, ip, 15 mg/kg): generally well tolerated | tissue distribution ([8]; 5 mg/kg i.p.): well distributed to peripheral (e.g. muscle) and central (e.g. brain and spinal cord) tissues | half-life ([8]; male, Sprague-Dawley, rat, ip, 5 mg/kg i.p., plasma, muscle, brain, spinal cord, read-out: elimination half-life in all tissue compartments): 1.67 to 2.32 h | Cmax ([8]; male, Sprague-Dawley, rat, plasma and CNS tissues (brain, spinal cord), ip, ~5 mg/kg i.p., 15% ethanol/saline, read-out: maximal concentration (Cmax) in plasma and CNS tissues): ~1000 ng/mL | multi-dose steady state Cmax ([9]; 10 mg BID or TID, Cai-Li et al. 2003): 45 ng/mL | single dose Cmax ([9]; 10 mg, Ketas Package Insert): 25 ng/mL | blood-brain barrier crossing [10]: crosses the blood-brain barrier

Reference: US7534806B2, “Method for treating neuropathic pain and associated syndromes” (Avigen, Inc., priority 2004, dated 2009)
